Laboratory results as given in publication PMC4739778 (Experimental hematology, 2011).
Like-named read-outs stand apart in the source and are kept apart here.

Columns and labels:
[1] = Parallel artificial membrane permeability assay; conditions: 4% lipid bilayer; 16-hours incubation at room temperature
hOATP1B3 = molecular target: T1, hOATP1B3 (Homo sapiens, UniProt Q9NPD5); experiment: Inhibition of OATP1B3-mediated hydroxyurea accumulation in oocytes; type: cell-based; conditions: for Hydroxyurea accumulation in OATP1B3 oocytes, % of accumulation without inhibitor: 1mM inhibitor co-incubation, in 1% DMSO
T1 sequence (Q9NPD5 1-702): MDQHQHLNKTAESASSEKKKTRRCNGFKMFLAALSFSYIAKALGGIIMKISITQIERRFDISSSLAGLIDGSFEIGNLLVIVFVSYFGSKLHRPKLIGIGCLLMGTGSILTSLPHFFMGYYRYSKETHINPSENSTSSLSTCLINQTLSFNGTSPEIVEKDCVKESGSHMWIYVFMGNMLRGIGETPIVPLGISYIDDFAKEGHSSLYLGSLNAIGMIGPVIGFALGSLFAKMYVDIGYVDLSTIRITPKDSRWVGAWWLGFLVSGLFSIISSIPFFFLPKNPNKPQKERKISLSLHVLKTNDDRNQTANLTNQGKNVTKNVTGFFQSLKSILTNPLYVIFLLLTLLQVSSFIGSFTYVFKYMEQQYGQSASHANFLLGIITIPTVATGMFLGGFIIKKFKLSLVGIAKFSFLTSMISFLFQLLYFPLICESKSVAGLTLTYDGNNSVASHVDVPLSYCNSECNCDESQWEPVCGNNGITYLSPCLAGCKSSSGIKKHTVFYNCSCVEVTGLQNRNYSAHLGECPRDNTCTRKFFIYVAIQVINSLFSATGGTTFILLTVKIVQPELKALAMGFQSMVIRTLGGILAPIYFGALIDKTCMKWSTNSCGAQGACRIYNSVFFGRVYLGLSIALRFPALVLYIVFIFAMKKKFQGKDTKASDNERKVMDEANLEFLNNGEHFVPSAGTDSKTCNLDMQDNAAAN

[2] = PAMPA
human OCTN1 = molecular target: T2, human OCTN1 (Homo sapiens, UniProt Q9H015); experiment: Hydroxyurea uptake in HEK293 cells overexpressing hOCTN1; type: cell-based; conditions: percentage of control cells (100%)
T2 sequence (Q9H015 1-551): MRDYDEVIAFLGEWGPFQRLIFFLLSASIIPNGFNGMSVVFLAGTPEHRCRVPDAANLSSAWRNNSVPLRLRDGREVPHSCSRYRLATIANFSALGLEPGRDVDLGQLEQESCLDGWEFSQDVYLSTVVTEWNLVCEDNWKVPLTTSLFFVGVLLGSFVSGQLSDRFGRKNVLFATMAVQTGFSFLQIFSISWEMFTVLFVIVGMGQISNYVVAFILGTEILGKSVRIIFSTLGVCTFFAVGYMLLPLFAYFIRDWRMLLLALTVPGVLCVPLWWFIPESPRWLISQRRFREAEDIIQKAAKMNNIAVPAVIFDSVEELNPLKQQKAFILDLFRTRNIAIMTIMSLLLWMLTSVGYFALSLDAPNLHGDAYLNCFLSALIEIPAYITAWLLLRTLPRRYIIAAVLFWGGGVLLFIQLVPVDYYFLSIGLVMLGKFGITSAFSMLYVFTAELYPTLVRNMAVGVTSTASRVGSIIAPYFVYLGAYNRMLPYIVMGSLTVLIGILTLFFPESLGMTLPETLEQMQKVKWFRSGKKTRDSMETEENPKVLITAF

human OCTN2 = molecular target: T3, human OCTN2 (Homo sapiens, UniProt O76082); experiment: Hydroxyurea uptake in HEK293 cells overexpressing hOCTN2; type: cell-based; conditions: percentage of control cells (100%)
T3 sequence (O76082 1-557): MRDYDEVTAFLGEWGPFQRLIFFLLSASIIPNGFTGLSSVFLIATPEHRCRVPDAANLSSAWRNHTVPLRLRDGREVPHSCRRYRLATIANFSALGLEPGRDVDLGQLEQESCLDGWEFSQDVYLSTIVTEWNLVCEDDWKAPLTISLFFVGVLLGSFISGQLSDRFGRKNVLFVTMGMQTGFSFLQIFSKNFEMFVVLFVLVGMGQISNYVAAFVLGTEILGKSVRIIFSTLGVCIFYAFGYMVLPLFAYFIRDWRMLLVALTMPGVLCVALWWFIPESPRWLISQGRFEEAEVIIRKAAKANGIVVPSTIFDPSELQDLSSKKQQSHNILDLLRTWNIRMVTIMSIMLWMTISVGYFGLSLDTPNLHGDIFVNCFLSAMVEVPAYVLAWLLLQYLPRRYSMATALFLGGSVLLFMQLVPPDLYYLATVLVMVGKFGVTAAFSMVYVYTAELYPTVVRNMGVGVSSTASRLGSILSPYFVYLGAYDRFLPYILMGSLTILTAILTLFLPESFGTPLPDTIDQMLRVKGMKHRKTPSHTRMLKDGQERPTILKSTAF

[3] = humans, oral; cited from earlier work
UTB = molecular target: T4, UTB (Homo sapiens, UniProt Q13336); experiment: Transcellular transport assay in LLC-PK1 cells overexpressing UTB; type: cell-based; conditions: 1mM dimethylurea
T4 sequence (Q13336 1-389): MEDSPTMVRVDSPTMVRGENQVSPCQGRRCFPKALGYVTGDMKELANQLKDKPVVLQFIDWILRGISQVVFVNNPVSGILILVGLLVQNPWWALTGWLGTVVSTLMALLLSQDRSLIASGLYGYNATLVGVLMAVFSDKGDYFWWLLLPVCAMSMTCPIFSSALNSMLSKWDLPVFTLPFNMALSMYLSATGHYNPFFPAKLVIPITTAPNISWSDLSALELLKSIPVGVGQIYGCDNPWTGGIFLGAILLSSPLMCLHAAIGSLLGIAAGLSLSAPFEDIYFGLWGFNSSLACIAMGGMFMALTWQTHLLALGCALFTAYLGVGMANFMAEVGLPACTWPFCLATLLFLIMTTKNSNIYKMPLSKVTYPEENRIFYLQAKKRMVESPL

For `Cc1ncc2n1-c1ccc(Cl)cc1C(c1ccccc1F)=NC2` [midazolam], the “10 + logPe” value [1] was 4.707.
In the case of `CN(Cc1cnc2nc(N)nc(N)c2n1)c1ccc(C(=O)N[C@@H](CCC(=O)O)C(=O)O)cc1` [methotrexate], the “lowering of hydroxyurea accumulation in OATP1B3 oocytes” value (hOATP1B3; 1mM co-incubation in the absence of DMSO) is reported as 50% and the “10 + logPe” value ([2]; 16 h) is reported as 2.022.
In the case of `NC(N)=O` [urea], the “10 + logPe” value [2] is reported as 2.712 and the “estimated permeability rate (log Pe + 10)” value [2] is reported as 2.335.
For `CO[C@H]1/C=C/O[C@@]2(C)Oc3c(C)c(O)c4c(O)c(c(/C=N/N5CCN(C)CC5)c(O)c4c3C2=O)NC(=O)/C(C)=C\C=C\[C@H](C)[C@H](O)[C@@H](C)[C@@H](O)[C@@H](C)[C@H](OC(C)=O)[C@@H]1C` [rifampin], the “Hydroxyurea accumulation in OATP1B3 oocytes, % of accumulation without inhibitor” value (hOATP1B3) was 30%.
With `NC(=O)NO` [hydroxyurea] the “hydroxyurea uptake compared to controls” value (human OCTN1) was 130%, the “hydroxyurea uptake compared to controls” value (human OCTN2) was 113% and the “10 + logPe” value [2] was 2.597. For the same compound, the “estimated permeability rate (log Pe + 10)” value [2] was 2.385, the Tmax [3] was 1.22 h and the bioavailability [3] was “nearly complete”.
In the case of dimethylurea, the “effect on hydroxyurea transport” value (UTB) is reported as “marginally inhibited”.
For `C[C@@H]1O[C@@H](O[C@H]2[C@H](Oc3cc(O)c4c(c3)O[C@H](c3ccc(O)cc3)CC4=O)O[C@H](CO)[C@@H](O)[C@@H]2O)[C@H](O)[C@H](O)[C@H]1O` [naringin], the “Hydroxyurea accumulation in OATP1B3 oocytes, % of accumulation without inhibitor” value (hOATP1B3) was 30%.
